How the values were obtained:
Type in all cases: cell-based, human
HL60-I cells [1] = experiment: metabolic complementation assay: lectin staining (VVA, LFA, TLM) of analogue-treated cells by flow cytometry; conditions: 5 mM, 24 h; for effect on VVA binding: decrease = masking of GalNAc by sialic acid
Method: Medium supplementation with some synthetic sialic acid analogues restores cell surface sialylation in hyposialylated HL60-I cells. Cells were cultivated in the presence of indicated synthetic sialic acid analogue (5 mM) for 24 h and stained with either directly fluorochrome-coupled lectins (VVA, LFA) or biotin-coupled lectin (TLM) and streptavidin-FITC and analyzed by flow cytometry. Values are given as “relative factor of change” (RFC) of the “mean fluorescence intensity” (MFI) of sialic acid-treated cells relative to untreated cells. The bars represent arithmetic means±SD (n^34) of one (x) or ≧two experiments.
To test whether cells can incorporate synthetic sialic acid analogues from the culture medium, a metabolic complementation assay was performed on endogenously hyposialylated, UDP-GlcNAc-2-epimerase-deficient HL60-I cells.
Cells were cultivated for 24 h in the presence of one of 16 different synthetic sialic acid analogues, carrying distinct C5 or C9 modifications (FIG. 1), and subsequently, changes in cell surface sialylation were assessed by flow cytometry using three fluorochrome-conjugated sialic acid-sensitive lectins. Vicia villosa agglutinin (VVA) detects GalNAc residues, and its binding sites can be masked by the addition of terminal sialic acid residues.
In sugar supplementation assays, cells seeded at 5×10^5 cells/ml in culture medium buffered with 40 mM HEPES (pH 7.2) were cultivated for 24 h in the presence or absence of 5 mM sialic acids (stocks of 100 mM dissolved in H2O, stored at 4° C.).
(§1) Lyophilized FITC-conjugated lectins Vicia villosa (VVA) was obtained from Sigma, dissolved in H2O (1 mg/ml), aliquoted and stored at −20° C. according to the manufacturer's instructions. FITC-conjugated Limax flavus agglutinin (LFA) was from EY Laboratories (San Manteo, Calif., USA) and biotin-coupled Tritrichomonas mobilensis agglutinin (TLM) from Calbiochem. Lectin staining procedure and fluorescence-activated cell scanning on a Becton Dickinson FACScan cytometer using Cellquest II software were carried out as described (Keppler, O. T., Molden-hauer, G., Oppenländer, M., Schwartz-Albiez, R., Berger, E. G., Funderud, S., and Pawlita, M. (1992) Eur J Immunol 22(11), 2777-81). Briefly, cells (3×10^5) were washed twice in cold PBS and then incubated in 100 μl PBS/0.05% NaN3, containing either fluorochrome-conjugated lectins VVA (50 μg/ml), LFA (20 μg/ml), or biotinylated TLM (20 μg/ml) for 45 min on ice in the dark. For biotinylated TLM a secondary incubation step with steptavidin-FITC (20 μg/ml) (Sigma) for 30 min on ice in the dark is required. After washing with PBS, cells were resuspended in 300 μl PBS and analyzed by flow cytometry.

BJA-B K20 cells = experiment: HPLC of membrane-associated sialic acids from analogue-treated cells; conditions: serum-free, 5 mM, 48 h
Method: Sialic acid analogues are incorporated in cell surface glycoconjugates. HPLC chromatograms of DMB-derivatised sialic acids hydrolysed from glycoproteins of sialic acid analogue-treated BJA-B K20 cells. (A) standards, (B) untreated cells, (C) cells cultivated in 5-N-fluoroacNeu, (D) cells cultivated in 9-iodo-NeuAc. Peaks were identified as follows: NeuGc (internal standard), NeuAc, 5-N-fluoroac-Neu, 9-iodo-NeuAc, Na-pyruvate (internal standard). Internal standards were added to each sample.
To confirm that synthetic sialic acid analogues supplementing the medium were taken up and metabolically incorporated as analogues into surface sialoglyco-conjugates the membrane-associated sialic acid fraction was analyzed by High Performance Liquid Chromatography (HPLC). […]
To confirm that the modifications are still present after incorporation into glycoconjugates sialic acids were cleaved off cell surfaces and analyzed by HPLC. […] Sialic acids derivation was performed according to a method as given below and samples were analyzed on a reversed-phase C18 column as described (Keppler, O. T., Stehling, P., Herrmann, M., Kayser, H., Grunow, D., Reutter, W., and Pawlita, M. (1995) J Biol Chem 270(3), 1308-14).

HL60-I cells [2] = experiment: uptake of peracetylated/esterified NeuAc: VVA and TML lectin staining by flow cytometry; conditions: for effect on cell surface sialylation (VVA and TML binding): 0.03 to 1 mM (NeuAc 1 or 5 mM), 0.5% DMSO
Method: Peracetylation of NeuAc only facilitates uptake if the carboxyl group is additionally esterified. Hyposialylated HL60-I cells were cultivated in the presence of indicated synthetic sialic acid analogue (stock solution 200 mM in DMSO) ranging from 0.03 to 1 mM or 0, 1 or 5 mM NeuA for 72 h with DMSO concentrations adjusted to 0.5%. Cells were stained with either directly fluorochrome-coupled lectin VVA, or biotin-coupled lectin (TML) and streptavidin-FITC for analysis by flow cytometry. Values given are relative factors of change of the mean fluorescence intensity of pretreated cells relative to untreated cells. The bars represent arithmetic means±SD (n=3). Molecular structures are given below the diagram.
Sugars are very hydrophilic and it has been shown that increasing the hydrophobicity by peracetylation of hydroxyl groups enables or facilitates uptake of disaccharides (Collins, B. E., Fralich, T. J., Itonori, S., Ichikawa, Y. and Schnaar, R. L. (2000) Glycobiology, 10, 11-20; Sarkar, A. K., Fritz, T. A., Taylor, W. H. and Esko, J. D. (1995) Proc Natl Acad Sci USA, 92, 3323-7; Sarkar, A. K., Rostand, K. S., Jain, R. K., Matta, K. L. and Esko, J. D. (1997) J Biol Chem, 272, 25608-16). For ManNAc derivatives it has been shown that peracetylation reduces required medium concentrations (Collins et al., 2000). The acetyl groups are cleaved-off intracellularly by cellular esterases (Collins et al., 2000; Sarkar et al., 1995; Sarkar et al., 1997) and the derivatives are then processed as known for the non-acetylated sugars. In order to address the question whether peracetylation also facilitates uptake of N-acetylneuraminic acid, HL60-I cells were cultivated in the presence of peracetylated NeuAc at concentrations ranging from 0.03 mM to 1 mM for 3 days. Changes in cell surface sialylation were measured by flow cytometry using Vicia Villosa agglutinin (VVA) and Tritrichomonas mobilensis lectin (TML). […] This represents a reduction in concentration by more than 16-fold and is in a similar range as reported for peracetylated ManNAc and ManNAc (Collins et al., 2000).
as §1

Structure (SMILES)	effect on VVA binding (HL60-I cells [1])	effect on TLM binding (HL60-I cells [1])	effect on LFA binding (HL60-I cells [1])	other results
CC(=O)N[C@H]1[C@H]([C@H](O)[C@H](O)CNC(=O)CCC(=O)O)OC(O)(C(=O)O)C[C@@H]1O (stereo partly shown) [analogue e, 5-N-acetyl-9-deoxy-9-succinylamido-neuraminic acid]	weak or no effect on VVA binding			
CC(=S)N[C@H]1[C@H]([C@H](O)[C@H](O)CO)OC(O)(C(=O)O)C[C@@H]1O (stereo partly shown) [analogue n, 5-N-thioacetyl-neuraminic acid]	significantly decreased VVA-binding	increased binding		
O=C(O)CCC(=O)N[C@H]1[C@H]([C@H](O)[C@H](O)CO)OC(O)(C(=O)O)C[C@@H]1O (stereo partly shown) [analogue m, 5-N-succinyl-neuraminic acid]	weak or no effect on VVA binding			
CC(=O)N[C@H]1[C@H]([C@H](O)[C@H](O)CS)OC(O)(C(=O)O)C[C@@H]1O (stereo partly shown) [analogue g, 5-N-acetyl-9-deoxy-9-thio-neuraminic acid]	significantly decreased VVA-binding	increased binding	increased binding of LFA	
CC(=O)NC[C@@H](O)[C@@H](O)[C@@H]1OC(O)(C(=O)O)C[C@H](O)[C@H]1NC(C)=O (stereo partly shown) [analogue c, 5-N-acetyl-9-acetamido-9-deoxy-neuraminic acid]				changes in cell surface sialylation (lectin binding overall) (HL60-I cells [1]): failed to induce changes in cell surface sialylation
O=C(CF)N[C@H]1[C@H]([C@H](O)[C@H](O)CO)OC(O)(C(=O)O)C[C@@H]1O (stereo partly shown) [analogue j, 5-N-fluoroacetyl-neuraminic acid]	significantly decreased VVA-binding	increased binding	increased binding of LFA	share of membrane-associated sialic acids consisting of the analogue (BJA-B K20 cells): 90.5%
CC(=O)N[C@H]1[C@H]([C@H](O)[C@H](O)CN)OC(O)(C(=O)O)C[C@@H]1O (stereo partly shown) [analogue b, 5-N-acetyl-9-amino-9-deoxy-neuraminic acid]				changes in cell surface sialylation (lectin binding overall) (HL60-I cells [1]): failed to induce changes in cell surface sialylation
O=C(N[C@H]1[C@H]([C@H](O)[C@H](O)CO)OC(O)(C(=O)O)C[C@@H]1O)C(F)(F)F (stereo partly shown) [analogue k, 5-N-trifluoroacetyl-neuraminic acid]	significantly decreased VVA-binding			
CCOC(=O)C1(O)C[C@H](O)[C@@H](NC(C)=O)[C@H]([C@H](O)[C@H](O)CO)O1 (stereo partly shown) [analogue p, ethyl N-acetyl neuraminate]	significantly decreased VVA-binding	increased binding	increased binding of LFA	effect on LFA binding (HL60-I cells [1]; listed as NeuAc-Et-Ester): very similar to those of NeuAc; effect on TLM binding (HL60-I cells [1]; listed as NeuAc-Et-Ester): very similar to those of NeuAc
COC(=O)C1(OC(C)=O)C[C@H](OC(C)=O)[C@@H](NC(C)=O)[C@H]([C@H](OC(C)=O)[C@@H](COC(C)=O)OC(C)=O)O1 (stereo partly shown) [NeuAcperOAc-Me-ester]				reduction in concentration relative to NeuAc (HL60-I cells [2]; 0.3 mM vs 5 mM NeuAc): more than 16 fold; effect on cell surface sialylation (VVA and TML binding) (HL60-I cells [2]; HL60-I cells, 72 h): strongly increased cell surface sialylation; medium concentration showing similar effects as 5 mM NeuAc (HL60-I cells [2]; HL60-I cells, 72 h): 0.3 mM
CC(=O)N[C@H]1[C@H]([C@H](O)[C@H](O)CS(C)(=O)=O)OC(O)(C(=O)O)C[C@@H]1O (stereo partly shown) [analogue i, 5-N-acetyl-9-deoxy-9-methylsulfonyl-neuraminic acid]	significantly decreased VVA-binding	increased binding	increased binding of LFA	
CC(=O)NC1C(OC(C)=O)CC(OC(C)=O)(C(=O)O)OC1C(OC(C)=O)C(COC(C)=O)OC(C)=O (stereo not shown) [NeuAcperOAc]				effect on cell surface sialylation (VVA and TML binding) (HL60-I cells [2]; HL60-I cells, 72 h): no effect on cell surface sialylation
NCC(=O)N[C@H]1[C@H]([C@H](O)[C@H](O)CO)OC(O)(C(=O)O)C[C@@H]1O (stereo partly shown) [analogue l, 5-N-aminoacetyl-neuraminic acid]	weak or no effect on VVA binding			
CC(=O)N[C@H]1[C@H]([C@H](O)[C@H](O)CNC(=O)CN)OC(O)(C(=O)O)C[C@@H]1O (stereo partly shown) [analogue d, 9-N-aminoacetamido-9-deoxy-neuraminic acid]	weak or no effect on VVA binding			
CSC[C@@H](O)[C@@H](O)[C@@H]1OC(O)(C(=O)O)C[C@H](O)[C@H]1NC(C)=O (stereo partly shown) [analogue h, 5-N-acetyl-9-deoxy-9-methylthio-neuraminic acid]	significantly decreased VVA-binding	increased binding	increased binding of LFA	
